# In US6534480B2, “Compositions for increasing energy in vivo” (Bioenergy Inc., priority 1999, dated 2003):
# Experiments:
# adenine salvage pathway = assay: Adenine salvage (formation of ATP) in perfused resting rat plantaris muscle, ribose dose response; type: in vivo, Sprague-Dawley rats; conditions: for salvage of adenine (formation of ATP), Observed: 30 minutes
# Experimental: It has been theorized but not objectively shown that ribose, via PRPP synthesis, increases the rate of ATP synthesis via the nucleotide salvage pathway. […] The muscle was perfused with reconstituted blood medium at ˜40 ml/min, providing tissue perfusion of approximately 0.65 ml/min. Varying concentrations of D-ribose were added to the perfusate to bring the concentration to 0.156 mM, 0.5 mM, 1.58 mM, 5.0 mM and 15.0 mM. The muscle was perfused for 30 minutes. A minimum of two rats was used for analysis at each dose of ribose tested. Following perfusion, muscle sections were quickly dissected from the limb and freeze-clamped with aluminum tongs chilled in liquid nitrogen. Muscle sections were lyophilized and reconstituted in distilled water for subsequent-separation of adenine nucleotides by reverse-phase high pressure liquid chromatography. Results are expressed as salvage of adenine (i.e., formation of ATP) in nanomoles salvaged per gram wet weight of muscle per hour (nM/gm/hr).
# ATP [1] = assay: ATP in vastis lateralis muscle biopsies (Ribose Athlete Study); type: in vivo, human; conditions: for ATP Recovery % of Pre: 48 hours recovery vs initial level
# Experimental: Four healthy, fit subjects in the age range 24 to 26 years of age were tested. The group was selected to be homogeneous regarding fitness level, gender and mean age with no known metabolic, neuronal, endocrine or cardiopulmonary disorders. All were capable of or had experience with cycling. The study protocol included four phases: (1) an initial baseline phase consisting of no exercise session; (2) a loading phase including three days of administration of either D-ribose or placebo (glucose) three times per day; (3) a training phase of three days employing exercise sessions characterized by serial (N=6) bouts of short (10 second) high-intensity cycle sprints at 7% body mass resistance with 50 second rest periods between sprints twice per day (morning and afternoon), and (4) a recovery phase for a period of 48 hours after the final training session. FIG. 1 is a diagram of a single cycle sprint bout. Muscle biopsies (MB) were performed on the […] lateralis muscle using both legs in order to evenly distribute and minimize sampling and possible muscle soreness per leg due to the biopsy itself. The first MB was collected at rest at the beginning of the study to establish a baseline and immediately after the first training-session of day 0 or the first phase. During the loading phase, no MB was taken. Muscle Biposies were taken following the final training session and after 48 hours of recovery. Two subjects were randomly selected for inclusion into the placebo or ribose group. Ribose or glucose was administered orally in a 250 ml iso-osmotic solution containing 10.0 grams of either ribose or placebo three times per day for three days preceding training (loading phase) and for three days during training (training phase). One-half liter isotonic electrolyte solution was given immediately post exercise and again 30 minutes later to avoid dehydration. The concentration of the following analytes was determined in the MB samples: ATP, ADP, AMP, IMP (inosine monophosphate), TAN (total adenine nucleotides), creatine phosphate and creatine.
# [2] = Sprint power output and well-being in normal untrained subjects (planned); type: in vivo, human; conditions: 5 grams of D-ribose in 200 ml. of water after each sprint bout
# Text: D-ribose, given immediately before and during exercise, can provide a benefit to those subjects who have not been previously trained. Four healthy, normal male volunteers will be tested for sprint power output on an exercycle, as for Example 2 above. Each subject will serve as their own control. Between the sprint bouts, the subjects will cycle slowly and continuously. Total test time will be one hour, with four sprint bouts during the test. Following the initial baseline test and following each sprint bout, the subjects will be given 5 grams of D-ribose in 200 ml. of water or a similar tasting placebo (glucose). Sprint power output will be tested 15 minutes after each ingesting of the test solutions. Each subject will undergo two sessions, one week apart, one with ribose and one with placebo, in randomized order. The placebo will be sweetened with glucose in order to be indistinguishable from the ribose solution.
# [3] = Exercise induced angina, single patient with coronary artery disease; type: in vivo, human
# Text: A patient with a history of coronary artery disease, status post triple coronary artery bypass, experienced exercise induced angina. Their present medications are: enalapril (an angiotensin converting enzyme inhibitor), carvedilol (a β blocking agent), nitroglycerine patch and nitroglycerine tablets sublingual as needed. […] The patient performed poorly on two stress tests. Their exercise regimen consisted of a daily walk. Due to the development of angina, the patient was able to walk less than one mile per day, at which point they took sublingual nitroglycerine. The patient was given oral D-ribose dissolved in about 250 cc. of water. Over a six-month period, the patient received intermittent doses of 5-10 grams per day of D-ribose. […] When the ribose was discontinued, their pre-ribose, anginal-inducing exercise state recurred, which necessitated the use of supplemental oral nitroglycerine.
# [4] = Self administration of ribose, subject with low energy after systemic bacterial infection; type: in vivo, human
# Text: An example of a subject having no overt disease who benefitted from self-administered ribose is a person. They had adhered to a strict weekly exercise regimen most of their life until sustaining a systemic bacterial infection, which required admission to the intensive care unit for one month and rehabilitation for an additional month. Their cardiovascular and pulmonary systems were predominantly affected during and following their illness and function had not recovered to its previous levels, or to their satisfaction, after one year.
# Following convalescence, they have attempted to resume an exercise regimen, which involves running on a treadmill four days a week and lifting weights for two days a week. The runs were restricted to short intervals. Following the daily exercises, they have continuously experienced fatigue to the point of exhaustion and has required frequent naps. The patient began self-administering oral D-ribose at two doses per day, 4-5 grams per dose. Within seven days, they testified that their “pep” and exercise tolerance increased. For the first time since their illness, they are able to run as long as 30 minutes on the treadmill. They still experience a Degree of fatigue, but has been able to discontinue the naps after exercise. They continue on the daily oral doses of ribose, along with their scheduled exercises and feels a continuing improvement in their energy level after four weeks of ribose administration.
# ATP [5] = conditions: heart recovering from ischemia, intravenous perfusion; cited from earlier work
# de novo synthesis of AMP = conditions: ribose added to the perfusate; cited from earlier work
smiles,measurement,setting,value
"O=C[C@H](O)[C@H](O)[C@H](O)CO [Ribose, D-ribose]",adenine salvage relative to zero mM ribose,adenine salvage pathway; 0.158 mM ribose,doubles
same,"salvage of adenine, Saturation Kinetics with Base",adenine salvage pathway; 0.158 mM ribose,85.82 nM/gm/hr
same,"salvage of adenine (formation of ATP), Observed",adenine salvage pathway; 0.158 mM ribose in perfusate,113.0 nM/gm/hr
same,"salvage of adenine, Saturation Kinetics with Base",adenine salvage pathway; 0.500 mM ribose,118.68 nM/gm/hr
same,"salvage of adenine (formation of ATP), Observed",adenine salvage pathway; 0.500 mM ribose in perfusate,110.0 nM/gm/hr
same,"salvage of adenine, Saturation Kinetics with Base",adenine salvage pathway; 1.000 mM ribose,154.12 nM/gm/hr
same,"salvage of adenine, Saturation Kinetics with Base",adenine salvage pathway; 1.580 mM ribose,183.51 nM/gm/hr
same,"salvage of adenine (formation of ATP), Observed",adenine salvage pathway; 1.580 mM ribose in perfusate,188.5 nM/gm/hr
same,"salvage of adenine, Saturation Kinetics with Base",adenine salvage pathway; 2.000 mM ribose,199.74 nM/gm/hr
same,"salvage of adenine, Saturation Kinetics with Base",adenine salvage pathway; 2.500 mM ribose,215.29 nM/gm/hr
same,"salvage of adenine, Saturation Kinetics with Base",adenine salvage pathway; 3.000 mM ribose,227.85 nM/gm/hr
same,"salvage of adenine, Saturation Kinetics with Base",adenine salvage pathway; 5.000 mM ribose,260.68 nM/gm/hr
same,"salvage of adenine (formation of ATP), Observed",adenine salvage pathway; 5.000 mM ribose in perfusate,250.0 nM/gm/hr
same,"salvage of adenine (formation of ATP), Observed","adenine salvage pathway; 5.000 mM ribose in perfusate, listed as ribose",250 nM/gm/hr
same,"salvage of adenine, Saturation Kinetics with Base",adenine salvage pathway; 15.000 mM ribose,310.37 nM/gm/hr
same,"salvage of adenine (formation of ATP), Observed",adenine salvage pathway; 15.000 mM ribose in perfusate,315.5 nM/gm/hr
same,ATP Recovery % of Pre,ATP [1],82%
same,ATP Recovery % of Pre,ATP [1]; listed as ribose,82%
same,ATP Change Post-Rec,ATP [1]; in vivo,6.90 mmol/kg dw
same,ATP Change Pre-Post,ATP [1]; in vivo,−11.43 mmol/kg dw
same,"Mean ATP Values, Recovery",ATP [1]; muscle biopsy after 48 hours of recovery,20.80 mmol/kg dw
same,"Mean ATP Values, Post",ATP [1]; muscle biopsy following the final training session,13.90 mmol/kg dw
same,"Mean ATP Values, Pre","ATP [1]; muscle biopsy, after three days ribose loading, before training",25.33 mmol/kg dw
same,subjective feeling of well being,[2],subjectively higher feeling of well being
same,sprint power output after ribose vs placebo,[2]; sustained mild exercise,higher power output
same,patient's subjective evaluation of the ribose treatment,[3]; oral D-ribose 5-10 grams per day,much less angina pain
same,exercise tolerance (daily walk) without nitroglycerine,"[3]; oral D-ribose 5-10 grams per day intermittent over six months, before: less than one mile per day",two miles per day
same,adverse effects,[4]; four weeks of oral ribose administration,no adverse effects
same,time able to run on the treadmill,"[4]; oral D-ribose two doses per day, 4-5 grams per dose",≤ 30 min
same,"""pep"" and exercise tolerance","[4]; within seven days of oral D-ribose, two doses per day, 4-5 grams per dose",increased
same,recovery of ATP levels,ATP [5],enhanced
same,de novo synthesis of AMP in sedentary muscle,de novo synthesis of AMP,increases the de novo synthesis of AMP
same,decline in de novo synthesis in contracting muscle,de novo synthesis of AMP,does not eliminate the decline
